Legend:
Type in all cases: physicochemical
[1] = In vitro drug release (dissolution) profile, USP apparatus 1, 0.1 N HCl; conditions: 50 RPM, solid composition with pregelatinized starch
Protocol: Optically pure Ramipril(I) obtained from example 1 is formulated as a solid pharmaceutical composition by conventional way of direct mixing process with excipients such as pregelatinized starch.
Ramipril(I) monohydrate obtained from example 5 is formulated as a solid pharmaceutical composition by conventional way of direct mixing process with excipients such as pregelatinized starch.
The in vitro drug release profile was carried out using USP apparatus 1,500 ml of 0.1 N HCl at 50 RPM. Following table provides a comparison of dissolution profile of Ramipril(I) crystallized from diethoxymethane as well as the Ramipril(I) monohydrate and prior art method.

[2] = Thermal stability of the hydrate form; conditions: converts to anhydrous form on heating above 40° C.
Protocol: The novel hydrate of Ramipril(I) occurs in crystalline form. It is readily converted to the anhydrous moiety by heating at a temperature in the range from 40° C. to 42° C. under reduced pressure of 2 to 5 mm hg. The novel hydrate form is stable up to a temperature of 25° C. The monohydrate is transformed into anhydrous Ramipril(I), the so-called “anhydrate” on heating above 40° C. with a speed depending on the conditions of dehydration.

[3] = Tapped density (T.D.) of crystalline material
[4] = Stability study at 40° C./75% RH, assay by HPLC; conditions: crystallized by Diethoxymethane
[5] = Bulk density (B.D.) of crystalline material
Source text: The bulk density is an economically, commercially, and functionally important property. […] Moreover, when shipping powders over long distances a high bulk density results in reducing the shipping volume. A high bulk density compound also saves packing material and storage capacity.

[6] = Present invention, solvent 2,2-Dimethoxy-propane
[7] = Present invention, solvent Diethoxymethane
[8] = Present invention, solvent Methyl formate
[9] = Present invention, solvent Nitromethane
[10] = Prior art method, solvent Ethanol-diethyl ether
[11] = Prior art method, solvent Ethanol-diisopropyl ether

Structure (SMILES): CCOC(=O)[C@H](CCc1ccccc1)N[C@@H](C)C(=O)N1[C@H](C(=O)O)C[C@@H]2CCC[C@@H]21 [Crystallised from Diethoxymethane, (2S,3aS,6aS)-1-[(S)-2-[[(S)-1-(ethoxycarbonyl)-3-phenylpropyl]-amino]propanoyl]octahydrocyclopenta[b]pyrrole-2-carboxylic acid]
- % Drug release of the Label claim ([1]; 5 Min.): 48.4%
- % Drug release of the Label claim ([1]; 10 Min.): 93.8%

Structure (SMILES): CCOC(=O)[C@H](CCc1ccccc1)N[C@@H](C)C(=O)N1[C@H](C(=O)O)C[C@@H]2CCC[C@@H]21.O [Monohydrate Ramipril(I)]
- temperature up to which the form is stable [2]: ≤ 25 °C
- % Drug release of the Label claim ([1]; 5 Min.): 40.8%
- % Drug release of the Label claim ([1]; 10 Min.): 87%

Structure (SMILES): CCOC(=O)[C@H](CCc1ccccc1)N[C@@H](C)C(=O)N1[C@H](C(=O)O)C[C@@H]2CCC[C@@H]21 [Prior art Method]
- % Drug release of the Label claim ([1]; 5 Min.): 18.8%
- % Drug release of the Label claim ([1]; 10 Min.): 75%

Structure (SMILES): CCOC(=O)[C@H](CCc1ccccc1)N[C@@H](C)C(=O)N1[C@H](C(=O)O)C[C@@H]2CCC[C@@H]21 [Ramipril(I), (2S,3aS,6aS)-1-[(S)-2-[[(S)-1-(ethoxycarbonyl)-3-phenylpropyl]-amino]propanoyl]octahydrocyclopenta[b]pyrrole-2-carboxylic acid]
- T.D. [3, 6]: 0.14 to 0.18 g/mL
- T.D. [3, 7]: 0.32 to 0.37 g/mL
- T.D. [3, 8]: 0.15 to 0.17 g/mL
- T.D. [3, 9]: 0.15 to 0.17 g/mL
- T.D. [3, 10]: 0.15 to 0.17 g/mL
- T.D. [3, 11]: 0.13 to 0.15 g/mL
- Assay by HPLC(%) ([4]; 40° C. ± 2° C./75% ± 5% RH, 1 Month): 99.5%
- Assay by HPLC(%) ([4]; 40° C. ± 2° C./75% ± 5% RH, 2 Month): 99.2%
- Assay by HPLC(%) ([4]; 40° C. ± 2° C./75% ± 5% RH, 3 Month): 99.12%
- Assay by HPLC(%) ([4]; Initial): 99.68%
- B.D. [5, 6]: 0.1 to 0.13 g/mL
- B.D. [5, 7]: 0.22 to 0.24 g/mL
- B.D. [5, 8]: 0.11 to 0.13 g/mL
- B.D. [5, 9]: 0.12 to 0.14 g/mL
- B.D. [5, 10]: 0.09 to 0.12 g/mL
- B.D. [5, 11]: 0.08 to 0.1 g/mL

Structure (SMILES): CCOC(=O)[C@H](CCc1ccccc1)N[C@@H](C)C(=O)N1[C@H](C(=O)O)C[C@@H]2CCC[C@@H]21 [anhydrous Ramipril(I)]
- bulk density [5]: 0.3 to 0.35 g/mL
